Results as given in patent publication US4647564A, “Inotropic agents” (Eli Lilly and Company, priority 1986, dated 1987).

What was measured:
[1] = test system: Ventricular contractility in the anesthetized dog; assay: Ventricular contractility in the anesthetized dog (i.v.); assay type: in vivo; details: Canis lupus familiaris, iv, i.v. bolus, by interpolation, read-out: ED50 (dose required to produce a peak increase in contractility of 50%)
Source text: (§1) The compounds of Formula I are particularly useful as inotropic agents due to their potency, long action of effect, and oral efficacy and are therefore useful in the treatment and prevention of heart failure. For example, the compounds of this invention were examined as to their pharmacodynamic effects on the following test systems. For comparison, 1,3-dihydro-5-(1,4,5,6-tetrahydro-6-oxo-3-pyridazinyl)-2H-indol-2-one (Compound A) and 4,4-dimethyl-1,2,3,4-tetrahydro-6-(1,4,5,6-tetrahydro-6-oxo-3-pyridazinyl)quinolin-2-one (Compound B) as taught in U.S. Pat. No. 4,258,185 (although named somewhat differently), were also tested.
Mongrel dogs of either sex ranging in weight for 7 to 14 kg were used. Anesthesia was induced with sodium pentobarbital (30 mg/kg, i.v.) and maintained with supplemental doses as required. A positive-pressure pump was used to ventilate the dogs through an endotracheal tube (18 strokes/minute, 20 ml/kg stroke^-1), and a heating pad kept the body temperature at 37°-38° C.
Femoral arterial blood pressure was measured through a polyethylene catheter filled with heparin solution (16 units/ml) and connected to a Statham pressure transducer. A strain-gauge arch sutured to the right ventricle of the heart measured cardiac contractility. Tension on the gauge was adjusted to 50 g and the gain of the recorder (Beckman dynograph) was set so that 50 g caused a 10-mm pen deflection. Cardiac contractile tension was measured as millimeters of pen deflection or grams of tension. The test compounds were administered as an i.v. bolus (2-5 ml) in a normal saline vehicle following a 30-45 minute equilibrium period. […] The maximum effects on contractility at various dose levels were determined and plotted and the dose required to produce a 50 % increase in contractility (ED50) was determined by interpolation.

[2] = test system: Ventricular contractility in the conscious dog; assay: Ventricular contractility in the conscious dog (oral); assay type: in vivo; details: Canis lupus familiaris, oral (gelatin capsules), by interpolation, read-out: ED50 (dose required to produce a peak increase in contractility of 50%)
Source text: as §1
Mongrel dogs of either sex weighing 15-36 kg were chronically instrumented to monitor peak systolic pressure, heart rate, left ventricular pressure and its first derivative, LVdP/dt at 60 mm of mercury. Under halothane-nitrous oxide anesthesia, a precalibrated Konigsberg P22 Pressure Transducer was implanted into the left ventricle through a stab wound at the apex. Following recovery from surgery, a minimum of two weeks was allowed to train the dogs to lie quietly for four-hour periods. This conditioning was necessary to obtain stable, reproducible results from day to day. Dogs were fasted eighteen hours before an experiment. Gross behavioral observations of animals were made throughout each study. Compounds or placebo (lactose) were administered in gelatin capsules. The maximum effects on contractility at various dose levels were determined and plotted and the dose required to produce a 50-percent increase in contractility (ED50) was determined by interpolation.

[3] = test system: Cat papillary muscles; assay: Positive inotropic activity in isolated cat papillary muscles; assay type: cell-based; details: Felis catus, control = 100 percent, average of 2 to 8 muscles, read-out: Contractility of papillary muscle, peak response; for activity at 100 µM: 10^-4 M; for activity at 10 µM: 10^-5 M
Source text: as §1
Cats of either sex were anesthetized with Metofane (1,1-difluoro-2,2-dichloroethyl methyl ether, Pittman-Moore). Their hearts were immediately removed and the papillary muscles dissected and suspended in individual organ baths. A platinum hook secured one end of the muscle to an electrode mounted in the bottom of the bath, and a silk thread attached the tendon to a Statham isometric transducer. The baths contained Krebs-Henseleit solution (36° C., bubbled with 95 percent oxygen--5 percent carbon dioxide) of the following millimolar composition: NaCl, 118; KCl, 4.5; CaCl2, 2.5; KH2 PO4, 1.1; MgSO4, 1.2; NaHCO3, 25; and glucose, 11.
A base-line tension of 1.5 g was applied to each muscle. Square-wave pulses (5.0 msec. in duration, three times threshold voltage) delivered through the hook electrode and a second electrode positioned near the top of the muscle evoked 12 contractions/minute, which were recorded on a Grass polygraph. After the muscles had equilibrated for 60 minutes, the recorder gain was adjusted so that the pen deflected 10 mm. The test compound was introduced in a solution of normal saline in an amount to bring the final concentration of the compound to 10^-5 or 10^-4 molar. Increases in contractility were tabulated as millimeters of pen deflection in excess of the baseline value. In each experiment the maximum contractility was measured. Test results are summarized in Table I and are expressed as percent of control (control=100 percent). Values are the average of results from 2 to 8 muscles.

Compound | ED50 [1] [mg/kg] | ED50 [2] [mg/kg] | activity at 100 µM [3] [%] | activity at 10 µM [3] [%]
O=C1CCC(c2ccc3c(c2)CC(=O)N3)=NN1 [Compound A, 1,3-dihydro-5-(1,4,5,6-tetrahydro-6-oxo-3-pyridazinyl)-2H-indol-2-one, reference compound] | 0.01 | 0.5 | 152 | 147
Cc1cc(C2=NNC(=O)CC2)cc2c1NC(=O)C2(C)C [Example 4, 1,3-Dihydro-3,3,7-trimethyl-5-(1,4,5,6-tetrahydro-6-oxo-3-pyridazinyl)-2H-indol-2-one] | 0.0085 | – | – | –
Cc1cc2c(cc1C1=NNC(=O)CC1)C(C)(C)C(=O)N2 [Example 5, 1,3-Dihydro-3,3,6-trimethyl-5-(1,4,5,6-tetrahydro-6-oxo-3-pyridazinyl)-2H-indol-2-one] | 0.02 | – | – | –
CN1C(=O)C(C)(C)c2cc(C3=NNC(=O)CC3)ccc21 [Example 2, 1,3-Dihydro-1,3,3-trimethyl-5-(1,4,5,6-tetrahydro-6-oxo-3-pyridazinyl)-2H-indol-2-one] | 0.01 | > 0.4 | – | –
CC1CC(=O)NN=C1c1ccc2c(c1)C(C)(C)C(=O)N2C (stereo not shown) [Example 3, 1,3-Dihydro-1,3,3-trimethyl-5-(1,4,5,6-tetrahydro-4-methyl-6-oxo-3-pyridazinyl)-2H-indol-2-one] | 0.005 | – | – | –
CC1(C)CC(=O)Nc2ccc(C3=NNC(=O)CC3)cc21 [Compound B, 4,4-dimethyl-1,2,3,4-tetrahydro-6-(1,4,5,6-tetrahydro-6-oxo-3-pyridazinyl)quinolin-2-one, reference compound] | 0.048 | > 0.5 | 169 | 178
CC1C(=O)Nc2ccc(C3=NNC(=O)CC3)cc21 (stereo not shown) [Example 8, 1,3-Dihydro-3-methyl-5-(1,4,5,6-tetrahydro-6-oxo-3-pyridazinyl)-2H-indol-2-one] | 0.0063 | 0.025 | – | –
CC1(C)C(=O)Nc2ccc(C3=NNC(=O)CC3)cc21 [Example 1, 1,3-Dihydro-3,3-dimethyl-5-(1,4,5,6-tetrahydro-6-oxo-3-pyridazinyl)-2H-indol-2-one] | 0.005 | 0.025 | 208 | 202
CC1CC(c2ccc3c(c2)C(C)(C)C(=O)N3)=NNC1=O (stereo not shown) [Example 6, 1,3-Dihydro-3,3-dimethyl-5-(1,4,5,6-tetrahydro-5-methyl-6-oxo-3-pyridazinyl)-2H-indol-2-one] | 0.021 | – | – | –
CC1CC(=O)NN=C1c1ccc2c(c1)C(C)(C)C(=O)N2 (stereo not shown) [Example 7, 1,3-Dihydro-3,3-dimethyl-5-(1,4,5,6-tetrahydro-4-methyl-6-oxo-3-pyridazinyl)-2H-indol-2-one] | 0.0025 | 0.05 | – | –
